Measurements from patent US11242349B2, “Ethynyl derivatives” (Hoffmann-La Roche Inc., priority 2016, dated 2022).
Where two headings read alike, the source gives them in different places.

How the values were obtained:
[1] = molecular target: recombinant human mGlu4 expressed in HEK293 cells (Homo sapiens (Human), UniProt Q14833); experiment: Ca2+ mobilization in vitro assay, mGlu4 PAM; format: cell-based; conditions: for EC50: HEK293 cells, human mGlu4, with EC20 of L-AP4; for Eff. (%): maximal response in % of maximal stimulatory effect of saturating L-AP4
recombinant human mGlu4 expressed in HEK293 cells, sequence (Q14833 33-912): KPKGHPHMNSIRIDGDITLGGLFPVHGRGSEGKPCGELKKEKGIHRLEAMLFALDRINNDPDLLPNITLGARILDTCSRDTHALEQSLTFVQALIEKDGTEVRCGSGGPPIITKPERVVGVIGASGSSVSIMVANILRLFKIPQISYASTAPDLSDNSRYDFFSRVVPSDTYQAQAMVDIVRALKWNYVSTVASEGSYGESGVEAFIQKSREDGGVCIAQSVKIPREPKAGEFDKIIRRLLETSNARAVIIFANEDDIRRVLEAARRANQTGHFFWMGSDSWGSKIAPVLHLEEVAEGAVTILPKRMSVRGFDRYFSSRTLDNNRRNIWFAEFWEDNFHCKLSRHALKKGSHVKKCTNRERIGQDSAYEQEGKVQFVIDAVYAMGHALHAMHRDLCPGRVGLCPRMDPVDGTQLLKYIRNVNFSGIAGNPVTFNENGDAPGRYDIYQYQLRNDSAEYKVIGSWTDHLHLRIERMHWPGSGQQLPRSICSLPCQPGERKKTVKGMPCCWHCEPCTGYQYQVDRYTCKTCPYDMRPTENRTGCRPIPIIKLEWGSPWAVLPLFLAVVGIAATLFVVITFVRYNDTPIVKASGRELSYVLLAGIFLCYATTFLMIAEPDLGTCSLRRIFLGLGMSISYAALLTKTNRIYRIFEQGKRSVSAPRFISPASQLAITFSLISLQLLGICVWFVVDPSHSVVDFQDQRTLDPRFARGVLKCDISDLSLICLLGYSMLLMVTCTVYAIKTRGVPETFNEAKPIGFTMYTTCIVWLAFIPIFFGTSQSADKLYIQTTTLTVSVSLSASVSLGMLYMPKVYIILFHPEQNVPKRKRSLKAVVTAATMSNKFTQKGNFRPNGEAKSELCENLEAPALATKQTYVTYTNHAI
Description: Determination of EC50 values using a Ca2+ mobilization in vitro assay on recombinant human mGlu4 expressed in HEK293 cells:
A monoclonal HEK-293 cell line stably transfected with a cDNA encoding for the human mGlu4 receptor was generated; for the work with mGlu4 Positive Allosteric Modulators (PAMs), a cell line with low receptor expression levels and low constitutive receptor activity was selected to allow the differentiation of agonistic versus PAM activity. Cells were cultured according to standard protocols (Freshney, 2000) in Dulbecco's Modified Eagle Medium with high glucose supplemented with 1 mM glutamine, 10% (vol/vol) heat-inactivated bovine calf serum, Penicillin/Streptomycin, 50 μg/ml hygromycin and 15 μg/ml blasticidin (all cell culture reagents and antibiotics from Invitrogen, Basel, Switzerland). About 24 hrs before an experiment, 5×10^4 cells/well were seeded in poly-D-lysine coated, black/clear-bottomed 96-well plates. The cells were loaded with 2.5 μM Fluo-4AM in loading buffer (1×HBSS, 20 mM HEPES) for 1 hr at 37° C. and washed five times with loading buffer. The cells were transferred into a Functional Drug Screening System 7000 (Hamamatsu, Paris, France), and 11 half logarithmic serial dilutions of test compound at 37° C. were added and the cells were incubated for 10-30 min. with on-line recording of fluorescence. […] Graphs were plotted with the % maximal stimulatory using XLfit, a curve fitting program that iteratively plots the data using Levenburg Marquardt algorithm. The single site competition analysis equation used was y=A+((B-A)/(1+((x/C)D))), where y is the % maximal stimulatory effect, A is the minimum y, B is the maximum y, C is the EC50, x is the log 10 of the concentration of the competing compound and D is the slope of the curve (the Hill Coefficient).
FIG. 1: Illustration of the experimental outline for mGlu4 PAM Ca2+ mobilization screening assay and the determination of EC50 and % Emax values.

[2] = mice; preclinical model of anxiety; cited from earlier work
[3] = mice; preclinical model of anxiety; cited from earlier work; remark: listed apart in the source
[4] = cited from earlier work
[5] = mice treated with MPTP; cited from earlier work

CCn1ncc2c1CCC[C@]21CC(=O)N(c2c(F)cc(C#Cc3ccccc3)cc2F)C(=O)N1C [Example 2, (4S)-3′-[2,6-Difluoro-4-(2-phenylethynyl)phenyl]-1-ethyl-1′-methyl-spiro[6,7-dihydro-5H-indazole-4,6′-hexahydropyrimidine]-2′,4′-dione]
EC50 [1]: 85 nM | Eff. (%) [1]: 136%

CCn1cc2c(n1)CCC[C@]21CC(=O)N(c2c(F)cc(C#Cc3ccccc3)cc2F)C(=O)N1C [Example 1, (4S)-3′-[2,6-Difluoro-4-(2-phenylethynyl)phenyl]-2-ethyl-1′-methyl-spiro[6,7-dihydro-5H-indazole-4,6′-hexahydropyrimidine]-2′,4′-dione]
EC50 [1]: 77 nM | Eff. (%) [1]: 132%

Cc1ccnc(Nc2nc(-c3cn[nH]c3)c(C)s2)n1 [ADX88178]
activity in marble burying test [2]: active | activity in EPM [3]: active | profile in rat EPM test ([4]; rat, after oral dosing): anxiolytic-like profile | activity in EPM ([4]; rats, preclinical model of anxiety): active

O=C(Nc1ccccc1)C12CC1/C(=N\O)c1ccccc1O2 (single isomer, unassigned; (-)) [(−)-PHCCC]
nigrostriatal degeneration [5]: reduced nigrostriatal degeneration
